Measured values: patent US20080194522A1, “Development of Fluorogenic Substrates For Monoamine Oxidases (Mao-A and Mao-B)” (priority 2004, published 2008)
“Also recorded” adds a separate entry of the source. Marks after values point to notes of the source that are not given here.

Tests used:
[1] = Photophysical characterization (absorbance, extinction coefficient, emission, quantum yield); assay type: physicochemical; conditions: for fluorescence, in words: aqueous / phosphate buffer; for ΦEtOH: EtOH; for ΦH2O: H2O
Procedure: Extinction coefficients were the average of three independent determinations of three different readings from the lowest energy transition at three concentrations. Quantum yields are the average of three determinations of both quantum yield standard 9,10-diphenylanthracene and the synthesized coumarines at 340 nm unless otherwise indicated.
All spectra were recorded in 100 mM sodium phosphate (pH 7.4) unless otherwise indicated. Recorded λmax is that of the longest wavelength transition. Extinction coefficients were reported as the average of at least three independent preparations of the probes. Fluorescence measurements were taken on a Jobin Yvon Fluorolog fluorescence spectrofluorometer (slits 3, HV 750) in 100 mM sodium phosphate pH 7.4 buffer unless otherwise indicated. Quantum yields were measured relative to 9,10 diphenylanthracene in EtOH.4 Reported quantum efficiencies are the average of at least three independent preparations of the probes.
The extinction coefficient ε relates the absorbance of a compound to its concentration as expressed in Beer's law (A=εbc where A is absorbance, b is pathlength, and c is concentration). Extinction coefficients were the average of three independent determinations of three different readings of absorbance from the lowest energy transition at three concentrations. The quantum yield of fluorescence is the fraction of absorbed photons that lead to fluorescence; the number of photons fluoresced divided by the number of photons absorbed. To obtain the quantum yields of the synthesized coumarines their efficiency was compared to standard 9,10-diphenylanthracene at 340 nm in three different determinations. The effect of different solvents on the fluorescence of the compounds was also tested. The compounds were dissolved in methanol, chloroform and toluene and their emissions spectrum was taken.

[2] = Solubility in aqueous solution; assay type: physicochemical; conditions: in words
Chemical stability = conditions: in words
[3] = Fluorescence switch / apparent fluorescence increase, product versus substrate; assay type: physicochemical
Procedure: Apparent fluorescence increase was calculated by comparing the slopes (arbitrary fluorescence units/μM) of standard curves of chemically synthesized product and substrate concentration versus fluorescence intensity. Calculation of the apparent fluorescence increase is shown below for probe 9, which has a 21000% apparent fluorescence increase in emission intensity at λem=524 nm. The constants fP and fS were calculated from the slope of a line of fluorescence intensity versus concentration of chemically synthesized product indole 10 and substrate 9, respectively. These slopes were obtained from calibration curves of at least five concentrations of 9 and 10 in phosphate buffer (pH 7.4). The preparations of the compounds in mitochondrial assay buffer have negligible effects on fS and fP.

[4] = Table 4, in water, relative to 9,10-diphenyl anthracene (excited at 340 nm)
[5] = Table 4 indoles, in water, first λmax column
[6] = Table 4 indoles, in water, second λmax
[7] = Table 4, in water, relative to coumarin 6 (excited at 420 nm)
[8] = Table 3, in water, relative to 9,10-diphenyl anthracene (excited at 365 nm)
[9] = Table 3 hydroxyl-amine probes, in water
[10] = Table 5, 100 mM sodium phosphate pH 7.4
[11] = Table 5, 100 mM sodium phosphate pH 7.4, longest wavelength transition
[12] = Table 5, relative to 9,10-diphenyl anthracene (excited at 365 nm)
[13] = Table 5, relative to 9,10-diphenyl anthracene (excited at 340 nm)
[14] = Table 4, in water, relative to 9,10-diphenyl anthracene (excited at 365 nm)

Cc1cc(=O)oc2ccc3[nH]ccc3c12 [XVIII]
Φ [1, 4]: 0.18 ± 0.05^a
ε (M^−1cm^−1) ([1]; Table 4 indoles, in water): 11,600 ± 800 M^−1cm^−1
λmax (nm) [1, 5]: 349 nm
λmax (nm) [1, 6]: 492 nm

NCCc1ccc2oc(=O)ccc2c1N [V]
ε (M^−1cm^−1) ([1]; Table 2 diamines, in water): 6,000 ± 100 M^−1cm^−1
λmax (nm) ([1]; Table 2 diamines, in water): 299 nm

O=c1ccc2c(ccc3[nH]ccc32)o1 [XIX]
Φ [1, 7]: 0.05 ± 0.02^c
ε (M^−1cm^−1) ([1]; Table 4 indoles, in water): 9,400 ± 900 M^−1cm^−1
λmax (nm) [1, 5]: 355 nm
λmax (nm) [1, 6]: 517 nm

CC12CC(=O)Oc3ccc(N)c(c31)CCN2 (centres unmarked) [Probe 125, 7-Amino-3a-methyl-3a,4,5,6-tetrahydro-3H-1-oxa-4-aza-phenalen-2-one]
fluorescence, in words [1]: non-fluorescent

Cc1cc(=O)oc2ccc(N)c(CCO)c12 [Probe 57, 6-Amino-5-(2-hydroxy-ethyl)-4-methyl-chromen-2-one]
fluorescence, in words [1]: essentially non-fluorescent; also recorded: very weakly fluorescent
solubility in aqueous solution [2]: very soluble
chemical stability (Chemical stability): chemically and photo-physically stable

O=c1oc2c3c4c(cc2c(C(F)(F)F)c1-c1ccc2[nH]ccc2c1)CCCN4CCC3 [XV]
λmax (nm) [1, 5]: 439 nm
λmax (nm) [1, 6]: 557 nm

Cc1c(-c2ccc(N)c(CCO)c2)c(=O)oc2c3c4c(cc12)CCCN4CCC3 [Probe 23, 9-[4-Amino-3-(2-hydroxy-ethyl)-phenyl]-8-methyl-2,3,5,6-tetrahydro-1H, 4H-11-oxa-3a-aza-benzo[de]anthracen-10-one]
fluorescence emission intensity increase, indole/pyrrolocoumarin versus aniline/aminocoumarin [3]: 6 fold

Nc1cc2ccc(=O)oc2cc1CCO [Probe 58, 6-Amino-7-(2-hydroxy-ethyl)-chromen-2-one]
fluorescence, in words [1]: basically non-fluorescent; also recorded: very weakly fluorescent

Cc1cc(=O)oc2c1ccc1[nH]ccc12 [Probe 36, 4-Methyl-7H-pyrano[2,3-e]indol-2-one]
fluorescence, in words [1]: very weak fluorescence emission intensity; also recorded: very weakly fluorescent

CCN(CC)c1ccc2c(C)c(-c3ccc(N)c(CCO)c3)c(=O)oc2c1 [VI]
Φ [1, 8]: 0.014
ε (M^−1cm^−1) [1, 9]: 15,000 ± 1,000 M^−1cm^−1
λcm (nm) [1, 9]: 499 nm
λmax (nm) [1, 9]: 394 nm

O=c1oc2c3c4c(cc2c(C(F)(F)F)c1-c1ccc2[nH]ccc2c1)CCCN4CCC3 [Probe 25, 9-(1H-Indol-5-yl)-8-trifluoromethyl-2,3,5,6-tetrahydro-1H, 4H-11-oxa-3a-aza-benzo[de]anthracen-10-one]
fluorescence quantum yield, in words [1]: rather low quantum yield
fluorescence, in words [1]: distinct red-shift emission

7-(4-Amino-phenyl)-4-methyl-chromen-2-one [Probe 1]
ε (M^−1cm^−1) [1, 10]: 13,000 ± 1,000 M^−1cm^−1
λcm (nm) [1, 10]: 484 nm
λmax (nm) [1, 11]: 390 nm
ΦEtOH [1, 12]: 0.0287 ± 0.0006^b
ΦH2O [1, 12]: 0.00112 ± 0.00008^b

Cc1c(-c2ccc(N)c(CCO)c2)c(=O)oc2c3c4c(cc12)CCCN4CCC3 [VII]
Φ [1, 8]: 0.0040
ε (M^−1cm^−1) [1, 9]: 21,000 ± 2,000 M^−1cm^−1
λcm (nm) [1, 9]: 499 nm
λmax (nm) [1, 9]: 391 nm

Cc1cc(=O)oc2ccc3cc[nH]c3c12 [Probe 55, 9-Methyl-1H-pyrano[2,3-g]indol-7-one]
fluorescence, in words [1]: quite fluorescent

Cc1cc(=O)oc2ccc(N)c(CCN)c12 [Probe 115, 6-Amino-5-(2-amino-ethyl)-4-methyl-chromen-2-one]
chemical stability (Chemical stability): stable when protonated; also recorded: very unstable once deprotonated, or even under neutral condition

CCN(CC)c1ccc2c(C)c(-c3ccc(N)c(CCO)c3)c(=O)oc2c1 [Probe 16, 3-[4-Amino-3-(2-hydroxy-ethyl)-phenyl]-7-diethylamino-4-methyl-chromen-2-one]
fluorescence, in words [1]: much less fluorescent than Probe 17
solubility in aqueous solution [2]: reasonably soluble
chemical stability (Chemical stability): chemically and photo-physically stable

NCCc1cc2oc(=O)ccc2cc1N [Probe 116, 6-Amino-7-(2-amino-ethyl)-chromen-2-one]
fluorescence, in words [1]: very weakly fluorescent
chemical stability (Chemical stability): perfectly stable

Nc1c(CCO)ccc2oc(=O)ccc12 [X]
ε (M^−1cm^−1) [1, 9]: 13,000 ± 3,000 M^−1cm^−1
λmax (nm) [1, 9]: 298 nm

CCN(CC)c1ccc2c(C)c(-c3ccc(N)c(CCN)c3)c(=O)oc2c1 [I]
ε (M^−1cm^−1) ([1]; Table 2 diamines, in water): 13,000 ± 1,000 M^−1cm^−1
λcm (nm) ([1]; Table 2 diamines, in water): 484 nm
λmax (nm) ([1]; Table 2 diamines, in water): 390 nm

Nc1cc2ccc(=O)oc2cc1CCO [VIII]
λmax (nm) [1, 9]: 354 nm

O=c1ccc2cc3[nH]ccc3cc2o1 [XX]
Φ [1, 4]: 0.0082 ± 0.0004^a
ε (M^−1cm^−1) ([1]; Table 4 indoles, in water): 17,000 ± 2,000 M^−1cm^−1
λmax (nm) [1, 5]: 335 nm
λmax (nm) [1, 6]: 524 nm

CCN(CC)c1ccc2c(C)c(-c3ccc(N)c(CCN)c3)c(=O)oc2c1 [Probe 114, 3-[4-Amino-3-(2-amino-ethyl)-phenyl]-7-diethylamino-4-methyl-chromen-2-one]
solubility in aqueous solution [2]: water solubility
chemical stability (Chemical stability): desired chemical stability

Cc1cc(=O)oc2ccc(N)c(CCN)c12 [IV]
Φ ([1]; Table 2, in water, relative to 9,10-diphenyl anthracene (excited at 340 nm)): 0.010

7-(1H-Indol-5-yl)-4-methyl-chromen-2-one [Probe 4]
ε (M^−1cm^−1) [1, 10]: 11,600 ± 800 M^−1cm^−1
λmax (nm) [1, 11]: 349 nm
ΦEtOH [1, 13]: 0.36 ± 0.07^a
ΦH2O [1, 13]: 0.13 ± 0.02^a

Cc1cc(=O)oc2ccc3[nH]ccc3c12 [Probe 52, 9-Methyl-3H-pyrano[3,2-e]indol-7-one]
fluorescence, in words [1]: quite fluorescent

Cc1cc(=O)oc2cc(-c3ccc4[nH]ccc4c3)ccc12 [XI]
Φ [1, 4]: 0.00329 ± 0.00008^a
λmax (nm) [1, 5]: 339 nm
λmax (nm) [1, 6]: 445 nm

CCN(CC)c1ccc2cc(-c3ccc4[nH]ccc4c3)c(=O)oc2c1 [XII]
Φ [1, 7]: 0.08 ± 0.02^c
ε (M^−1cm^−1) ([1]; Table 4 indoles, in water): 17,000 ± 1,000 M^−1cm^−1
λmax (nm) [1, 5]: 401 nm
λmax (nm) [1, 6]: 477 nm

7-[4-Amino-3-(2-hydroxy-ethyl)-phenyl]-4-methyl-chromen-2-one [Probe 3]
λcm (nm) [1, 10]: 492 nm
λmax (nm) [1, 11]: 350 nm
ΦH2O [1, 13]: 0.010 ± 0.003^a

Cc1c(-c2ccc3[nH]ccc3c2)c(=O)oc2c3c4c(cc12)CCCN4CCC3 [Probe 24, 9-(1H-Indol-5-yl)-8-methyl-2,3,5,6-tetrahydro-1H, 4H-11-oxa-3a-aza-benzo[de]anthracen-10-one]
emission wavelength [1]: 495 nm

Nc1c(CCO)ccc2oc(=O)ccc12 [Probe 81, 5-Amino-6-(2-hydroxy-ethyl)-chromen-2-one]
fluorescence, in words [1]: very weakly fluorescent; also recorded: only weak fluorescence

Cc1cc(=O)oc2ccc3cc[nH]c3c12 [XVII]
Φ [1, 4]: 0.0531 ± 0.0001^a
ε (M^−1cm^−1) ([1]; Table 4 indoles, in water): 14,000 ± 3,000 M^−1cm^−1
λmax (nm) [1, 5]: 330 nm
λmax (nm) [1, 6]: 488 nm

[4-(4-Methyl-2-oxo-2H-chromen-7-yl)-phenyl]-carbamic acid tert-butyl ester [Probe 2]
ε (M^−1cm^−1) [1, 10]: 17,000 ± 1,000 M^−1cm^−1
λcm (nm) [1, 10]: 477 nm
λmax (nm) [1, 11]: 401 nm
ΦEtOH [1, 12]: 0.59 ± 0.09^b
ΦH2O [1, 12]: 0.08 ± 0.01^b

O=c1oc2c3c4c(cc2cc1-c1ccc2[nH]ccc2c1)CCCN4CCC3 [XIV]
Φ [1, 14]: 0.050 ± 0.005^b
λmax (nm) [1, 5]: 388 nm
λmax (nm) [1, 6]: 501 nm

Nc1ccc2oc(=O)ccc2c1CCO [IX]
Φ [1, 8]: 0.0017
ε (M^−1cm^−1) [1, 9]: 3,400 ± 500 M^−1cm^−1
λmax (nm) [1, 9]: 357 nm

O=c1ccc2cc3[nH]ccc3cc2o1 [Probe 59, 1H-Pyrano[2,3-f]indol-6-one]
fluorescence, in words [1]: quite fluorescent
fluorescence emission intensity increase, indole/pyrrolocoumarin versus aniline/aminocoumarin [3]: around 2000 fold

CCN(CC)c1ccc2c(C)c(-c3ccc4cc[nH]c4c3)c(=O)oc2c1 [XIII]
Φ [1, 14]: 0.0103 ± 0.0003^b
ε (M^−1cm^−1) ([1]; Table 4 indoles, in water): 20,000 ± 3,000 M^−1cm^−1
λmax (nm) [1, 5]: 399 nm
λmax (nm) [1, 6]: 484 nm
